The values below come from patent publication US4965283A, “Amino acid esters, process for the preparation thereof and use thereof” (Dr. Willmar Schwabe GmbH & Co., priority 1987, dated 1990).

Where a name gives a salt, the structure may show the parent alone. Read-outs that look alike come from different tables or passages of the source. Bounds are passed on as bounds.

One data set deals with mouse. Description: observation for neurotoxicity symptoms (motility, muscle tonus, respiratory frequency, body temperature, general behaviour). The data set is classed as in vivo. As for the experimental part:
During the experiments described above, the animals were observed during the whole of the experimental period (up to 4 hours) for signs of substance-caused changes of behaviour and neurotoxicity (motility, muscle tonus, respiratory frequency, body temperature and general behaviour).

Data set [1] has as its system maximum electroshock spasm (MES), extensor spasm in mice. The data set is described as follows: MES test (maximum electroshock; inhibition of extensor spasm). To be noted: for responders at 50 mg/kg / ED50 / responders at 100 mg/kg: Mus musculus; for ED50: read-out: ED 50 values; for ED 50 values (estimated values): * estimated from several tests with different dosages. The data set is classed as in vivo, male mice (NMRI). An excerpt: For the determination of the anticonvulsive/anti-epileptic activity of the substances according to the present invention the method described by E. A. Swinyard et al., J. Pharmacol. exp. Therapeut. 106, 319-330 (1952) and by L. A. Woodbury et al., Arch. int. Pharmacodyn., 92, 97-107 (1952) was used. To male mice (NMRI) with a body weight of 20-25 g via corneal electrodes, an alternating current of 50 Hz and 50 mA is applied for 0.2 sec. (HSE-shock stimulation apparatus; type 207). The maximum electroshock spasm (MES) consists of a tonic extension of the rear extremities, the clonic twitch and loss of consciousness. The activity criterion is taken as being the inhibition of the extensor spasm by the substances according to the present invention. Before the experiments the mice had free access to feed and water. The test substances were administered orally as suspensions in 0.2% agar by stomach tubes; the control animals received adequate volumes of agar. 1 hour and 3 hours after administration the test for protective action against MES was carried out.
As percentage action the percentage proportion of those animals which in the MES test were protected 100% against the extensor spasm is given. 10 animals were used per test.
The ED 50 values were determined according to Lichtfield and Wilcoxon J. Pharmacol. exp. Therapeut. 96, 99 (1949) in each case with 4 to 5 animal groups each of 8-10 animals per dosage stage.

For data set [2] the test system is unchanged. Described as above. To be noted: Mus musculus, ip, 1 h, read-out: protective action [%] after 1 hr. The data set is classed as in vivo, male mice (NMRI).
Where [3] appears, read: po, 1 h, 50 mg/kg, oral, 1 hr after administration, n = 10, read-out: protective action [%] after 1 hr.
[4] abbreviates: po, 1 h, MES test, oral, 1 hour after administration.
Where [5] appears, read: po, 3 h, 50 mg/kg, oral, 3 hrs after administration, n = 10, read-out: protective action [%] after 3 hrs.
Where [6] appears, read: MES test, oral, 1 hour after administration.
[7] abbreviates: po, 1 h, 100 mg/kg, oral, 1 hr after administration, n = 10, read-out: protective action [%] after 1 hr.
Setting [8] is: po, 3 h, 100 mg/kg, oral, 3 hrs after administration, n = 10, read-out: protective action [%] after 3 hrs.
[9] abbreviates: 100 mg/kg, oral, 1 hr after administration, n = 10.
Where [10] appears, read: 100 mg/kg, oral, 3 hrs after administration, n = 10.

Consider `O=C1NC(=O)C(c2ccccc2)(c2ccccc2)N1` [phenytoin, diphenylhydantoin, reference compound], for which the “Neurotoxic limiting dose in the mouse, dose p.o.” value in the data set on mouse (in vivo, po) is 100 mg/kg. Moreover, the responders at 50 mg/kg in data set [1] (setting [3]) and in data set [1] (setting [5]) was 100% each time. Moreover, the ED50 in data set [1] (setting [4]) is 9.1 mg/kg.
Take `CCC1(c2ccccc2)C(=O)NC(=O)NC1=O` [phenobarbital, reference compound]: in the data set with mouse (p.o.), the “Neurotoxic limiting dose in the mouse, dose p.o.” value is given as 60 mg/kg. Moreover, the ED50 in data set [1] (po, 1 h) is 19.2 mg/kg. Moreover, the responders at 100 mg/kg in data set [1] (po, 1 h, read-out: protective action [%] after 1 hr) was determined as 100%; in data set [1] (po, 3 h, read-out: protective action [%] after 3 hrs), 100%.
Regarding `NC(=O)N1c2ccccc2C=Cc2ccccc21` [carbamazepine, reference compound], the “Neurotoxic limiting dose in the mouse, dose p.o.” value with mouse (in vivo, po) came to 100 mg/kg. Besides, the responders at 50 mg/kg in data set [1] (setting [3]) and in data set [1] (setting [5]) was 100% each time.
As to `CCCC(C)C1(CC)C(=O)NC(=O)NC1=O` (stereo not shown) [pentobarbital], the “Neurotoxic limiting dose in the mouse, dose p.o.” value in the data set on mouse (p.o.) stood at 60 mg/kg.
As for `COC1=CC(=O)OC1C(OC(=O)[C@@H](N)CCC(=O)O)c1ccccc1Cl` (single isomer, unassigned) [123 A], the responders at 50 mg/kg in data set [1] (setting [3]) came out at 70%; in data set [1] (setting [5]), 20%.
For `COC1=CC(=O)OC1C(OC(=O)[C@@H]1CCCN1)c1ccccc1` (stereo partly shown) [110 A], the “ED 50 values (estimated values)” value in data set [1] (setting [6]) is 40 to 50 mg/kg. In addition, the responders at 100 mg/kg in data set [1] (setting [7]) stood at 100%; in data set [1] (setting [8]), 0%.
`COC1=CC(=O)O[C@@H]1[C@@H](OC(=O)[C@@H]1CCCN1)c1ccccc1Cl` [103 A]: the responders at 100 mg/kg in data set [1] (setting [7]) and in data set [1] (setting [8]) was 100% in each case. Besides, in data set [1] (setting [4]), the ED50 was 10.7 mg/kg.
Regarding `COC1=CC(=O)OC1C(OC(=O)[C@H](C)N)c1ccc(Cl)cc1Cl` (stereo partly drawn) [Example 133, threo-5-[L-alanyloxy-(2,4-dichlorophenyl)-methyl]-4-methoxy-2(5H)-furanone hydrobromide], the “ED 50 values (estimated values)” value in data set [1] (setting [6]) was 60 to 70 mg/kg. The responders at 100 mg/kg in data set [1] (setting [7]) and in data set [1] (setting [8]) was 100% each time.
`COC1=CC(=O)O[C@H]1[C@H](OC(=O)CN)c1ccccc1Cl` (relative stereo) [Example 111, threo-5-[2-chlorophenyl-(glycyloxy)-methyl]-4-methoxy-2(5H)-furanone hydrobromide]: the responders at 50 mg/kg in data set [1] (setting [3]) was 100%; in data set [1] (setting [5]), 80%. Further, in data set [1] (setting [4]), the ED50 came out at 24.2 mg/kg.
For the compound `COC1=CC(=O)OC1C(OC(=O)[C@@H]1CCCN1)c1ccccc1Br` (single isomer, unassigned) [127 A], the responders at 50 mg/kg in data set [1] (setting [3]) and in data set [1] (setting [5]) was 100% each time.
Turning to `COC1=CC(=O)OC1C(OC(=O)[C@@H]1CCCN1C(C)=O)c1ccccc1Cl` (single isomer, unassigned) [107 A], in data set [1] (setting [6]), the “ED 50 values (estimated values)” value was 10 to 15 mg/kg. In addition, the responders at 100 mg/kg in data set [1] (setting [7]) stood at 100%; in data set [1] (setting [8]), 60%.
`COC1=CC(=O)O[C@H]1[C@H](OC(=O)CNC(C)=O)c1ccccc1Cl` (relative stereo) [Example 106, threo-5-[N-acetylglycyloxy-(2-chlorophenyl)-methyl]-4-methoxy-2(5H)-furanone]: the responders at 50 mg/kg stood at 100% in data set [1] (setting [3]) and 70% in data set [1] (setting [5]). In data set [1] (setting [4]), the ED50 stood at 23.1 mg/kg.
`CCC1(C)CC(=O)NC1=O` (stereo not shown) [ethosuximide, reference compound]: the “Neurotoxic limiting dose in the mouse, dose p.o.” value in the data set with mouse (in vivo, po) is recorded as 500 mg/kg. In addition, the responders at 100 mg/kg in data set [1] (setting [7]) and in data set [1] (setting [8]) was 0% in each case. Further, the ED50 in data set [1] (po, 4 h, MES test, oral, ** 4 hours after administration) was over 250 mg/kg.
On to `COC1=CC(=O)O[C@H]1[C@H](OC(=O)CN)c1ccccc1Cl` (relative stereo) [Example 112, threo-5-[2-chlorophenyl-glycyloxy)methyl-4-methoxy-2(5H)-furanone hydrochloride], for which, in data set [1] (50 mg/kg, oral, 3 hrs after administration, n = 10, hydrochloride), the “protective action [%] after 3 hrs” value came to 70%. Also, the “ED 50 values” in data set [1] (MES test, oral, 1 hour after administration, hydrochloride, 60 min) was 22.2 mg/kg.
For the compound `Br.COC1=CC(=O)OC1C(OC(=O)CN)c1ccccc1Cl` (single isomer, unassigned; (-)) [Example 153], the “protective action [%] after 1 hr” value in data set [1] (setting [9]) was 40%. Further, the “protective action [%] after 3 hrs” value in data set [1] (setting [10]) was determined as 0%.
For `COC1=CC(=O)OC1C(OC(=O)[C@H](Cc1ccccc1)N=C(C)C)c1ccccc1Cl` (single isomer, unassigned) [121 A], the responders at 50 mg/kg in data set [1] (setting [3]) amounted to 100%; in data set [1] (setting [5]), 90%.
Turning to `COC1=CC(=O)OC1C(OC(=O)[C@@H]1CCCN1)c1ccccc1F` (single isomer, unassigned) [129 A], in data set [1] (setting [9]), the “protective action [%] after 1 hr” value amounted to 100%. Moreover, the “protective action [%] after 3 hrs” value in data set [1] (setting [10]) was found to be 100%. Moreover, the “ED 50 values (estimated values)” value in data set [1] (setting [6]) is 40 to 50 mg/kg.
Consider `COC1=CC(=O)OC1C(OC(=O)[C@@H]1CCCN1)c1cc(Cl)ccc1Cl` (single isomer, unassigned) [137 A], for which the responders at 50 mg/kg in data set [1] (setting [3]) and in data set [1] (setting [5]) was 100% each time.
Regarding `COC1=CC(=O)OC1C(OC(=O)[C@@H]1CCCN1C(=O)OCc1ccccc1)c1cc(Cl)ccc1Cl` (single isomer, unassigned) [136 A], in data set [1] (setting [6]), the “ED 50 values (estimated values)” value was 40 to 50 mg/kg. Also, the values for the responders at 50 mg/kg in data set [1] (setting [3]) and in data set [1] (setting [5]) were 60% and 50%, respectively.
For the compound `COC1=CC(=O)O[C@H]1[C@H](OC(=O)CCCN)c1ccccc1Cl` (relative stereo) [Example 113, threo-5-[4-aminobutanoyloxy-(2-chlorophenyl)-methyl]-4-methoxy-2(5H)-furanone hydrobromide], the “ED 50 values (estimated values)” value in data set [1] (setting [6]) was 25 to 35 mg/kg. In addition, the results for the responders at 50 mg/kg in data set [1] (setting [3]) and in data set [1] (setting [5]) were 100% and 50%, respectively.
Consider `CCCC(CCC)C(=O)O` [valproic acid, reference compound], for which the “Neurotoxic limiting dose in the mouse, dose p.o.” value with mouse (p.o.) was determined as 350 mg/kg. Further, the ED50 in data set [1] (ip, 1 h) was 205 mg/kg. The responders at 100 mg/kg in data set [1] (ip, 3 h, read-out: protective action [%] after 3 hrs) turned out to be 0%; in data set [2], 0%.
On to `COC1=CC(=O)OC1C(OC(=O)[C@H](CCSC)NC(C)=O)c1ccccc1Cl` (single isomer, unassigned) [124 A], for which, in data set [1] (setting [6]), the “ED 50 values (estimated values)” value is 25 to 35 mg/kg. Further, the responders at 100 mg/kg was determined as 100% in data set [1] (setting [7]) and 20% in data set [1] (setting [8]).
On to `COC1=CC(=O)OC1C(OC(=O)[C@@H]1CCC(=O)N1)c1ccccc1Cl` (single isomer, unassigned) [125 A], for which the responders at 50 mg/kg turned out to be 100% in data set [1] (setting [3]) and 80% in data set [1] (setting [5]).
Turning to `COC1=CC(=O)OC1C(OC(=O)[C@H](N)c1ccccc1)c1ccccc1Cl` (stereo partly shown) [119 B], the responders at 50 mg/kg in data set [1] (setting [3]) was found to be 100%; in data set [1] (setting [5]) it was 20%. In addition, the ED50 in data set [1] (setting [4]) is 37.6 mg/kg.
